Laboratory results published in PubChem BioAssay (NCI).
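Growth conditions: 96-well plates. Treatment: test compound, 48 hours, 5 concentrations. Analysis: linear interpolation between bracketing concentrations; unreached endpoints set to highest concentration. GI50: concentration for 50% inhibition of growth. TGI: total growth inhibition.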

Assays:
Assay in all cases: NCI tumour cell line growth inhibition, 48 h
T-47D breast = system: T-47D breast
SN12C renal = system: SN12C renal
SR leukemia = system: SR leukemia
NCI-H522 lung = system: NCI-H522 lung
RXF 393 renal = system: RXF 393 renal
OVCAR-5 ovarian = system: OVCAR-5 ovarian
SK-MEL-2 melanoma = system: SK-MEL-2 melanoma
CAKI-1 renal = system: CAKI-1 renal
NCI-H23 lung = system: NCI-H23 lung
ACHN renal = system: ACHN renal
UACC-62 melanoma = system: UACC-62 melanoma
MCF7 breast = system: MCF7 breast
TK-10 renal = system: TK-10 renal
K-562 leukemia = system: K-562 leukemia
HOP-62 NSCLC = system: HOP-62 NSCLC
EKVX NSCLC = system: EKVX NSCLC
U251 CNS = system: U251 CNS
IGROV1 ovarian = system: IGROV1 ovarian
MALME-3M melanoma = system: MALME-3M melanoma
SF-295 CNS = system: SF-295 CNS
UACC-257 melanoma = system: UACC-257 melanoma
CCRF-CEM leukemia = system: CCRF-CEM leukemia
SK-OV-3 ovarian = system: SK-OV-3 ovarian
OVCAR-8 ovarian = system: OVCAR-8 ovarian
MOLT-4 leukemia = system: MOLT-4 leukemia
DU-145 prostate = system: DU-145 prostate
MDA-MB-231 breast = system: MDA-MB-231 breast
786-0 renal = system: 786-0 renal
OVCAR-4 ovarian = system: OVCAR-4 ovarian
A549 NSCLC = system: A549 NSCLC
M14 melanoma = system: M14 melanoma
HS 578T breast = system: HS 578T breast
NCI-H226 lung = system: NCI-H226 lung
RPMI-8226 leukemia = system: RPMI-8226 leukemia
KM12 colon = system: KM12 colon
HT29 colon = system: HT29 colon
SF-539 CNS = system: SF-539 CNS
HCC-2998 colon = system: HCC-2998 colon
HCT-15 colon = system: HCT-15 colon
SK-MEL-5 melanoma = system: SK-MEL-5 melanoma
HCT-116 colon = system: HCT-116 colon
SNB-75 CNS = system: SNB-75 CNS
SF-268 CNS = system: SF-268 CNS
HL-60(TB) leukemia = system: HL-60(TB) leukemia
BT-549 breast = system: BT-549 breast
HOP-92 NSCLC = system: HOP-92 NSCLC
NCI-H460 lung = system: NCI-H460 lung
LOX IMVI melanoma = system: LOX IMVI melanoma
COLO 205 colon = system: COLO 205 colon
SW-620 colon = system: SW-620 colon
SNB-19 CNS = system: SNB-19 CNS
PC-3 prostate = system: PC-3 prostate
SK-MEL-28 melanoma = system: SK-MEL-28 melanoma
A498 renal = system: A498 renal
NCI/ADR-RES ovarian = system: NCI/ADR-RES ovarian
UO-31 renal = system: UO-31 renal
MDA-MB-435 = system: MDA-MB-435

For Cc1cc2nc3c4cc(C#N)ccc4n(CCN(C)C)c3nc2cc1C, which GI50 (T-47D breast) is on record?
The GI50 was 2300 nM.

What about the GI50 (SN12C renal) of the same compound?
The GI50 was 770 nM.

And the TGI (SN12C renal)?
Its TGI is greater than 20800 nM.

And the GI50 (SR leukemia)?
Its GI50 is 362 nM.

And the TGI (SR leukemia)?
Its TGI is 3590 nM.

And the GI50 (NCI-H522 lung)?
Its GI50 is 505 nM.

And the TGI (NCI-H522 lung)?
Its TGI is 1960 nM.

And the GI50 (RXF 393 renal)?
Its GI50 is 918 nM.

And the TGI (RXF 393 renal)?
Its TGI is 2830 nM.

And the GI50 (OVCAR-5 ovarian)?
The GI50 was 1450 nM.

What about the TGI (OVCAR-5 ovarian) of the same compound?
Its TGI is greater than 22600 nM.

And the GI50 (SK-MEL-2 melanoma)?
Its GI50 is 2180 nM.

What about the TGI (SK-MEL-2 melanoma) of the same compound?
The TGI was 6150 nM.

What about the GI50 (CAKI-1 renal) of the same compound?
Its GI50 is 381 nM.

And the TGI (CAKI-1 renal)?
The TGI was 3420 nM.

And the GI50 (NCI-H23 lung)?
The GI50 was 507 nM.

What about the TGI (NCI-H23 lung) of the same compound?
Its TGI is 2370 nM.

And the GI50 (ACHN renal)?
The GI50 was 324 nM.

And the TGI (ACHN renal)?
The TGI was 1480 nM.

What about the GI50 (UACC-62 melanoma) of the same compound?
Its GI50 is 1400 nM.

And the TGI (UACC-62 melanoma)?
The TGI was 5210 nM.

What about the GI50 (MCF7 breast) of the same compound?
The GI50 was 1200 nM.

What about the TGI (MCF7 breast) of the same compound?
Its TGI is 6720 nM.

What about the GI50 (TK-10 renal) of the same compound?
Its GI50 is 1980 nM.

What about the TGI (TK-10 renal) of the same compound?
Its TGI is greater than 23200 nM.

What about the GI50 (K-562 leukemia) of the same compound?
The GI50 was 682 nM.

And the TGI (K-562 leukemia)?
Its TGI is greater than 34100 nM.

What about the GI50 (HOP-62 NSCLC) of the same compound?
The GI50 was 755 nM.

And the GI50 (EKVX NSCLC)?
The GI50 was 1710 nM.

And the TGI (EKVX NSCLC)?
The TGI was greater than 23800 nM.

What about the GI50 (U251 CNS) of the same compound?
The GI50 was 860 nM.

What about the GI50 (IGROV1 ovarian) of the same compound?
Its GI50 is 1070 nM.

What about the TGI (IGROV1 ovarian) of the same compound?
The TGI was 5600 nM.

And the GI50 (MALME-3M melanoma)?
Its GI50 is 1380 nM.

What about the TGI (MALME-3M melanoma) of the same compound?
The TGI was 3600 nM.

What about the GI50 (SF-295 CNS) of the same compound?
Its GI50 is 932 nM.

And the TGI (SF-295 CNS)?
The TGI was greater than 22500 nM.

And the GI50 (UACC-257 melanoma)?
The GI50 was 686 nM.

And the TGI (UACC-257 melanoma)?
Its TGI is 2060 nM.

And the GI50 (CCRF-CEM leukemia)?
Its GI50 is 1220 nM.

And the TGI (CCRF-CEM leukemia)?
Its TGI is greater than 33800 nM.

And the GI50 (SK-OV-3 ovarian)?
The GI50 was 919 nM.

And the TGI (SK-OV-3 ovarian)?
Its TGI is 9980 nM.

What about the GI50 (OVCAR-8 ovarian) of the same compound?
The GI50 was 584 nM.

What about the TGI (OVCAR-8 ovarian) of the same compound?
Its TGI is 3920 nM.

And the GI50 (MOLT-4 leukemia)?
The GI50 was 429 nM.

And the TGI (MOLT-4 leukemia)?
The TGI was greater than 32600 nM.

And the GI50 (DU-145 prostate)?
The GI50 was 1100 nM.

What about the TGI (DU-145 prostate) of the same compound?
The TGI was greater than 32700 nM.

What about the GI50 (MDA-MB-231 breast) of the same compound?
Its GI50 is 1060 nM.

And the TGI (MDA-MB-231 breast)?
Its TGI is greater than 20600 nM.

And the GI50 (786-0 renal)?
Its GI50 is 1340 nM.

And the TGI (786-0 renal)?
The TGI was greater than 20000 nM.

And the GI50 (OVCAR-4 ovarian)?
The GI50 was 1650 nM.

What about the TGI (OVCAR-4 ovarian) of the same compound?
The TGI was 5730 nM.

What about the GI50 (A549 NSCLC) of the same compound?
Its GI50 is 666 nM.

And the TGI (A549 NSCLC)?
Its TGI is 3020 nM.

What about the GI50 (M14 melanoma) of the same compound?
Its GI50 is 1360 nM.

What about the TGI (M14 melanoma) of the same compound?
The TGI was 3820 nM.

What about the GI50 (HS 578T breast) of the same compound?
The GI50 was 1590 nM.

What about the TGI (HS 578T breast) of the same compound?
Its TGI is greater than 21500 nM.

And the GI50 (NCI-H226 lung)?
Its GI50 is 1230 nM.

And the TGI (NCI-H226 lung)?
Its TGI is 8430 nM.

And the GI50 (RPMI-8226 leukemia)?
Its GI50 is 1100 nM.

What about the TGI (RPMI-8226 leukemia) of the same compound?
Its TGI is 4610 nM.

What about the GI50 (KM12 colon) of the same compound?
Its GI50 is 1690 nM.

And the TGI (KM12 colon)?
Its TGI is greater than 29700 nM.

What about the GI50 (HT29 colon) of the same compound?
Its GI50 is 546 nM.

What about the TGI (HT29 colon) of the same compound?
Its TGI is 6800 nM.

What about the GI50 (SF-539 CNS) of the same compound?
The GI50 was 966 nM.

What about the GI50 (HCC-2998 colon) of the same compound?
Its GI50 is 1030 nM.

And the TGI (HCC-2998 colon)?
Its TGI is 2440 nM.

What about the GI50 (HCT-15 colon) of the same compound?
The GI50 was 1010 nM.

And the TGI (HCT-15 colon)?
The TGI was 6170 nM.

What about the GI50 (SK-MEL-5 melanoma) of the same compound?
The GI50 was 1690 nM.

And the TGI (SK-MEL-5 melanoma)?
The TGI was 3510 nM.

And the GI50 (HCT-116 colon)?
Its GI50 is 429 nM.

What about the TGI (HCT-116 colon) of the same compound?
The TGI was 1760 nM.

And the GI50 (SNB-75 CNS)?
Its GI50 is 951 nM.

And the TGI (SNB-75 CNS)?
The TGI was 2670 nM.

What about the GI50 (SF-268 CNS) of the same compound?
Its GI50 is 1620 nM.

What about the TGI (SF-268 CNS) of the same compound?
Its TGI is greater than 20700 nM.

And the GI50 (HL-60(TB) leukemia)?
Its GI50 is 1160 nM.

And the TGI (HL-60(TB) leukemia)?
The TGI was 4370 nM.

What about the GI50 (BT-549 breast) of the same compound?
The GI50 was 2400 nM.

What about the GI50 (HOP-92 NSCLC) of the same compound?
Its GI50 is 634 nM.

What about the TGI (HOP-92 NSCLC) of the same compound?
The TGI was 4580 nM.

What about the GI50 (NCI-H460 lung) of the same compound?
The GI50 was 416 nM.

What about the TGI (NCI-H460 lung) of the same compound?
Its TGI is 2510 nM.

What about the GI50 (LOX IMVI melanoma) of the same compound?
The GI50 was 601 nM.

What about the TGI (LOX IMVI melanoma) of the same compound?
Its TGI is 2800 nM.

And the GI50 (COLO 205 colon)?
Its GI50 is 456 nM.

What about the TGI (COLO 205 colon) of the same compound?
Its TGI is 1630 nM.

What about the GI50 (SW-620 colon) of the same compound?
Its GI50 is 411 nM.

What about the TGI (SW-620 colon) of the same compound?
The TGI was 1970 nM.

And the GI50 (SNB-19 CNS)?
The GI50 was 978 nM.

And the TGI (SNB-19 CNS)?
The TGI was greater than 25200 nM.

What about the GI50 (PC-3 prostate) of the same compound?
Its GI50 is 1490 nM.

What about the TGI (PC-3 prostate) of the same compound?
Its TGI is greater than 21100 nM.

What about the GI50 (SK-MEL-28 melanoma) of the same compound?
The GI50 was 2270 nM.

What about the GI50 (A498 renal) of the same compound?
The GI50 was 1930 nM.

And the GI50 (NCI/ADR-RES ovarian)?
Its GI50 is 637 nM.

What about the TGI (NCI/ADR-RES ovarian) of the same compound?
The TGI was 7080 nM.

What about the GI50 (UO-31 renal) of the same compound?
Its GI50 is 312 nM.

What about the TGI (UO-31 renal) of the same compound?
The TGI was 2240 nM.

And the GI50 (MDA-MB-435)?
Its GI50 is 1010 nM.

And the TGI (MDA-MB-435)?
Its TGI is 3390 nM.
